Measurements published in ChEMBL document CHEMBL6127053, “Discovery of orally bioavailable phosphonate prodrugs of potent ENPP1 inhibitors for cancer treatment” (Eur J Med Chem, 2024).
≈ marks a conversion by molar mass, not a printed value.

Assays:
Cytochrome P450 2C9 = Cytochrome P450 2C9 (Homo sapiens, UniProt P11712); experiment: Inhibition of CYP2C9 (unknown origin); assay type: ADME
Cytochrome P450 2C19 = Cytochrome P450 2C19 (Homo sapiens, UniProt P33261); experiment: Inhibition of CYP2C19 (unknown origin); assay type: ADME
Chain of Cytochrome P450 2C19 (P33261 whole entry): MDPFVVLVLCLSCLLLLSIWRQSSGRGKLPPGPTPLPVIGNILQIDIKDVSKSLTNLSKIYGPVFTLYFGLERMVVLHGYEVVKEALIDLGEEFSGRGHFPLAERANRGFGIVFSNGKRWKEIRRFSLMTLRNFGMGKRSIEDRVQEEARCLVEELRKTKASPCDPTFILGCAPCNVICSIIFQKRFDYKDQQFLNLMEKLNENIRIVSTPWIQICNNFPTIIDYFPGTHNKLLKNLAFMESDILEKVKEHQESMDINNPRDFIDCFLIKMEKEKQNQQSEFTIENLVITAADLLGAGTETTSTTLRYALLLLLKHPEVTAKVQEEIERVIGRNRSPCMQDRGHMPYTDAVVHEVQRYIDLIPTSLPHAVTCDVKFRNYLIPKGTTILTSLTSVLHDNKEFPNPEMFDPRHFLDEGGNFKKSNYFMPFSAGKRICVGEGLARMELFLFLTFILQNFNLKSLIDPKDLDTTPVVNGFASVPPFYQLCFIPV

Cytochrome P450 2D6 = Cytochrome P450 2D6 (Homo sapiens, UniProt P10635); experiment: Inhibition of CYP2D6 (unknown origin); assay type: ADME
Chain of Cytochrome P450 2D6 (P10635 whole entry): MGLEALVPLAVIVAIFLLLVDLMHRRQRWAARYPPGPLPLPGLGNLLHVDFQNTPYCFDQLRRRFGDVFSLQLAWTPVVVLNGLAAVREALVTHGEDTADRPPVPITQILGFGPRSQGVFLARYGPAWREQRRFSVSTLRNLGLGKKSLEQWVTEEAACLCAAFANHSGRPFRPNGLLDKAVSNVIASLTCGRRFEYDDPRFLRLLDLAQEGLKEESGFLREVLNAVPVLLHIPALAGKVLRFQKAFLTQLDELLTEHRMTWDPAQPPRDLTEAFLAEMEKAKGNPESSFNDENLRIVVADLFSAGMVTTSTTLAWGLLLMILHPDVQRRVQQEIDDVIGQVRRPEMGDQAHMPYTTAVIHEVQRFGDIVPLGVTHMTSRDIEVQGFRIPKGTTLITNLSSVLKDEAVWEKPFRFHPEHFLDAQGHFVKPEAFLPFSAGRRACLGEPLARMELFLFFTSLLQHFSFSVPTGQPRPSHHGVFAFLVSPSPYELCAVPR

Cytochrome P450 1A2 = target: T1, Cytochrome P450 1A2 (Homo sapiens, UniProt P05177); experiment: Inhibition of CYP1A2 (unknown origin); assay type: ADME
T1 sequence (P05177 whole entry): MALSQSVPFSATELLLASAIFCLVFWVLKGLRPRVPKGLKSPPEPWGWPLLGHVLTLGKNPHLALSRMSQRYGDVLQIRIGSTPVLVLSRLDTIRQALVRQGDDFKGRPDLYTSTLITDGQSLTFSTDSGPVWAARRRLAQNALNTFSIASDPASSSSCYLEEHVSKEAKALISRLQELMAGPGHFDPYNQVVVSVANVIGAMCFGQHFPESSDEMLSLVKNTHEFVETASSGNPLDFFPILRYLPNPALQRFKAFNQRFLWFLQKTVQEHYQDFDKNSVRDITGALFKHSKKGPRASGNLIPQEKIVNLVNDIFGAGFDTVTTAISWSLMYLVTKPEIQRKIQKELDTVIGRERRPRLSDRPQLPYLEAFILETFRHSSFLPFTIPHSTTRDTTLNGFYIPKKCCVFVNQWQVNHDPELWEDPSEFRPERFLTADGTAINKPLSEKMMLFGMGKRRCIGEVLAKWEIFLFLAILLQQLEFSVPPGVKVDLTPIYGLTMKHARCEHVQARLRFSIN

Cytochrome P450 3A4 = Cytochrome P450 3A4 (Homo sapiens, UniProt P08684); experiment: Inhibition of CYP3A4 (unknown origin); assay type: ADME
Chain of Cytochrome P450 3A4 (P08684 whole entry, the tested form may be a part): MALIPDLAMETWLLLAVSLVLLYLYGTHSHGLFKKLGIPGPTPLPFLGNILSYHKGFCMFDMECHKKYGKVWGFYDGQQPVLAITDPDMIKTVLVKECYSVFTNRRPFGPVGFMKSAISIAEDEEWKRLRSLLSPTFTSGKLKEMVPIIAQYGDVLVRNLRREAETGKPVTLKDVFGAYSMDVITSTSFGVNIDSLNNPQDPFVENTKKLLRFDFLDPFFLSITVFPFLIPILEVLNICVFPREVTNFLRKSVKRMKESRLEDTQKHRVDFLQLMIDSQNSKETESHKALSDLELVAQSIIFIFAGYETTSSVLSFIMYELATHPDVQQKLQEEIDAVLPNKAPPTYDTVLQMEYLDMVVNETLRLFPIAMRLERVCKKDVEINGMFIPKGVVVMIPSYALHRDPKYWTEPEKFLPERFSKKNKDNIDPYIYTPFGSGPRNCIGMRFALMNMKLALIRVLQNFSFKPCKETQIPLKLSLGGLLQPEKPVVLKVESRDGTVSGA

[1] = target: T2, Ectonucleotide pyrophosphatase/phosphodiesterase family member 1 (Homo sapiens, UniProt P22413); experiment: Inhibition of ECD-His-tagged human recombinant ENPP1 using 2',3'-cGAMP as substrate preincubated with enzyme for 15 mins followed by substrate addition and incubated in R1 reaction buffer for 1 hr and treated in R2 reaction buffer for 1 hr measured at pH 7.5 by luminescence based analysis
T2 sequence (P22413 whole entry): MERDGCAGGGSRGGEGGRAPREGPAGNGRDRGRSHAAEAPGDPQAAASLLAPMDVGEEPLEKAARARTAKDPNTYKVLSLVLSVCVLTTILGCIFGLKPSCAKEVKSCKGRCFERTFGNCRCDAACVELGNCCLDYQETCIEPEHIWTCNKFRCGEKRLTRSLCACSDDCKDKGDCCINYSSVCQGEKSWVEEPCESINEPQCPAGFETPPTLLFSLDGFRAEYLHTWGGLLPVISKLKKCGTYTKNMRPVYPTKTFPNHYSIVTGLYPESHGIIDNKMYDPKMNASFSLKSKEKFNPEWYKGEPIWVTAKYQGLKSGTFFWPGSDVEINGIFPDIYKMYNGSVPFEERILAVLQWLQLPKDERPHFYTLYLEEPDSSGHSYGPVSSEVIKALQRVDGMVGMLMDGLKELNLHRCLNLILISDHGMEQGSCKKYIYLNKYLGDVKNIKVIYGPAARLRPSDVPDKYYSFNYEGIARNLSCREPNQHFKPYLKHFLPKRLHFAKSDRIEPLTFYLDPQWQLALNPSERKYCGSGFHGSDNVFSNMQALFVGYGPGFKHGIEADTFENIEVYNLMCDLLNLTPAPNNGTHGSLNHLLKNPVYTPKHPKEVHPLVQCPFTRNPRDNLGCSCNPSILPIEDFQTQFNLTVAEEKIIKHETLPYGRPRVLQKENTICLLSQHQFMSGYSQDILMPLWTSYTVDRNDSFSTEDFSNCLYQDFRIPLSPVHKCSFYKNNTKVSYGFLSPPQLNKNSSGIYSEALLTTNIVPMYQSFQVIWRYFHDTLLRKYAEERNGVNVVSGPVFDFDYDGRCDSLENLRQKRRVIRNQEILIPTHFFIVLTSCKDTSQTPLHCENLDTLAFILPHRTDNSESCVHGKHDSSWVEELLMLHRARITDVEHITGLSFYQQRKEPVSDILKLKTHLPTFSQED

[2] = target: T2, Ectonucleotide pyrophosphatase/phosphodiesterase family member 1; experiment: Inhibition of ENPP1 (unknown origin) at pH 7.5
[3] = target: T3, Ectonucleotide pyrophosphatase/phosphodiesterase family member 1 (Mus musculus, UniProt P06802)
T3 sequence (P06802 whole entry): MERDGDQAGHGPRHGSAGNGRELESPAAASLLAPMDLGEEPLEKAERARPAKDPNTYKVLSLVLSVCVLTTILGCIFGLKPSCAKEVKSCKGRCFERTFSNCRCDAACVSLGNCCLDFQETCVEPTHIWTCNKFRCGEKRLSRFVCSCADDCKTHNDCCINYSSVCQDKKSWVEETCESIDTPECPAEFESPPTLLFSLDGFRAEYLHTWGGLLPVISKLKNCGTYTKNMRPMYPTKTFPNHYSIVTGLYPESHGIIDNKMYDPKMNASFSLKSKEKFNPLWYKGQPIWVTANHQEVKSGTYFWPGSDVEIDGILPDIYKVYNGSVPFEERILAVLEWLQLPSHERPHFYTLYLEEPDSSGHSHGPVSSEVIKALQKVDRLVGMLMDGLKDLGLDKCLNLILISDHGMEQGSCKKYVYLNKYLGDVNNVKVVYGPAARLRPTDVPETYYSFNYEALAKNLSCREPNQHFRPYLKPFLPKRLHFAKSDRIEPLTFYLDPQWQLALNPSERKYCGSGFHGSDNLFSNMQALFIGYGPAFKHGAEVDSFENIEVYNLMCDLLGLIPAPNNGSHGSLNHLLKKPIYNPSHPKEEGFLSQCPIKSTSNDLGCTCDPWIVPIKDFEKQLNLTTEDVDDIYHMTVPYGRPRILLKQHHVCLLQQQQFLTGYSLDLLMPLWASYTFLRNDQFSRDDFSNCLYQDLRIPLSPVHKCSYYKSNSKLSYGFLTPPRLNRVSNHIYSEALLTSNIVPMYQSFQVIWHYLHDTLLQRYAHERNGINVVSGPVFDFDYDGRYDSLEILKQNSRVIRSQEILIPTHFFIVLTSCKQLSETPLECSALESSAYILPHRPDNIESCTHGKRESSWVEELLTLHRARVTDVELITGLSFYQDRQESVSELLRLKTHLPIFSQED

[4] = target: Voltage-gated inwardly rectifying potassium channel KCNH2 (Homo sapiens, UniProt Q12809); experiment: Inhibition of hERG; assay type: toxicity
Chain of Voltage-gated inwardly rectifying potassium channel KCNH2 (Q12809 whole entry): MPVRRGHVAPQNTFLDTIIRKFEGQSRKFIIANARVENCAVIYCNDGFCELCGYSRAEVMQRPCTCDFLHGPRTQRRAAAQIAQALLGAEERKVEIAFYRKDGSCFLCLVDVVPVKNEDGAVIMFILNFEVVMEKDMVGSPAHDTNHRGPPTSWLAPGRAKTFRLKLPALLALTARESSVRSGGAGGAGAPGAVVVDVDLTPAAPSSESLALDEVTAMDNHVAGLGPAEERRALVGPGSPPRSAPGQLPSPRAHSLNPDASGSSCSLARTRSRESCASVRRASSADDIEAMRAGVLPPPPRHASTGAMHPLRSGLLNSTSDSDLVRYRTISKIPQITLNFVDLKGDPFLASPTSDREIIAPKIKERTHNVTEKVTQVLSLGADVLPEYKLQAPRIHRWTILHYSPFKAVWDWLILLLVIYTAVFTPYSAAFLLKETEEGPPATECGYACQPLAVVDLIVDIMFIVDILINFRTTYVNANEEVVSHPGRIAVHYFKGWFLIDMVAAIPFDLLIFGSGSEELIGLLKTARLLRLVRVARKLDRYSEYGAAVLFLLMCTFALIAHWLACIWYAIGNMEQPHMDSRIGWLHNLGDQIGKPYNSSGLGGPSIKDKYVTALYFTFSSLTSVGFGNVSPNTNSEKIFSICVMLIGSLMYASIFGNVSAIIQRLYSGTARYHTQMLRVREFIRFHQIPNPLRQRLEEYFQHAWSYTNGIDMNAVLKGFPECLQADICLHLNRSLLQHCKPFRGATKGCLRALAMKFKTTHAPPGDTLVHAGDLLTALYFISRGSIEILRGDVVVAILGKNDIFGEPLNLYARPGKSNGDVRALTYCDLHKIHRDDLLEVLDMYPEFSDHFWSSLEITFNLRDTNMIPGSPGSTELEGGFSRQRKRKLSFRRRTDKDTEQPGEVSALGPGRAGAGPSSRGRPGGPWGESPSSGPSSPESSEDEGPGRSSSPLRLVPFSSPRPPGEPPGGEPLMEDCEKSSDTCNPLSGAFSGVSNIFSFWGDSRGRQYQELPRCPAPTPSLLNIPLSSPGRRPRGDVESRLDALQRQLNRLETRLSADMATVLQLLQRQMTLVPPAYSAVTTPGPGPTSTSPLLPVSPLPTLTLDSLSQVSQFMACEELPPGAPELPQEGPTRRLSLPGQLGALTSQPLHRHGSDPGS

[5] = Prodrug conversion in mouse assessed as half-life of (4-((7-Methoxy-1,8-naphthyridin-4yl)oxy)benzyl)phosphonic acid metabolite at 5 mg/kg, po measured for 24 hrs by LC-MS/MS analysis; assay type: ADME, organism-based; settings: in vivo
[6] = Prodrug conversion in mouse assessed as AUC(0 to t) of (4-((7-Methoxy-1,8-naphthyridin-4yl)oxy)benzyl)phosphonic acid metabolite at 5 mg/kg, po measured for 24 hrs by LC-MS/MS analysis; assay type: ADME, organism-based; settings: in vivo
[7] = Prodrug conversion in mouse assessed as oral bioavailability of (4-((7-Methoxy-1,8-naphthyridin-4yl)oxy)benzyl)phosphonic acid metabolite at 5 mg/kg measured for 24 hrs by LC-MS/MS analysis; assay type: ADME, organism-based; settings: in vivo
[8] = Prodrug conversion in rat assessed as half-life of (4-((7-Methoxy-1,8-naphthyridin-4yl)oxy)benzyl)phosphonic acid metabolite at 5 mg/kg, po measured for 24 hrs by LC-MS/MS analysis; assay type: ADME, organism-based; settings: in vivo
[9] = Prodrug conversion in rat assessed as AUC (0 to t) of (4-((7-Methoxy-1,8-naphthyridin-4yl)oxy)benzyl)phosphonic acid metabolite at 5 mg/kg, po measured for 24 hrs by LC-MS/MS analysis; assay type: ADME, organism-based; settings: in vivo
[10] = Prodrug conversion in rat assessed as oral bioavailability of (4-((7-Methoxy-1,8-naphthyridin-4yl)oxy)benzyl)phosphonic acid metabolite at 5 mg/kg measured for 24 hrs by LC-MS/MS analysis; assay type: ADME, organism-based; settings: in vivo
[11] = Prodrug conversion in dog assessed as half-life of (4-((7-Methoxy-1,8-naphthyridin-4yl)oxy)benzyl)phosphonic acid metabolite at 2 mg/kg, po measured for 24 hrs by LC-MS/MS analysis; assay type: ADME, organism-based, Canis lupus familiaris; settings: in vivo
[12] = Prodrug conversion in dog assessed as AUC(0 to t) of (4-((7-Methoxy-1,8-naphthyridin-4yl)oxy)benzyl)phosphonic acid metabolite at 2 mg/kg, po measured for 24 hrs by LC-MS/MS analysis; assay type: ADME, organism-based, Canis lupus familiaris; settings: in vivo
[13] = Prodrug conversion in dog assessed as oral bioavailability of (4-((7-Methoxy-1,8-naphthyridin-4yl)oxy)benzyl)phosphonic acid metabolite at 2 mg/kg measured for 24 hrs by LC-MS/MS analysis; assay type: ADME, organism-based, Canis lupus familiaris; settings: in vivo
Panc02 [14] = experiment: Antitumor activity against mouse Panc02 cells implanted in C57BL/6 mouse assessed as inhibition of tumor growth at 200 mg/kg, po bid for 35 days and measured on day 35; assay type: functional; settings: Panc02, 840 h, time 35 day, read-out: TGI
Panc02 [15] = experiment: Synergistic antitumor activity against mouse Panc02 cells implanted in C57BL/6 mouse assessed as inhibition of tumor growth at 200 mg/kg, po bid for 35 days and irradiated with 5Gy radiation on days 1,8,15,22,29 and measured on day 35 (reference value: 26%); assay type: functional; settings: Panc02, light or radiation study, 840 h, time 35 day, read-out: TGI
Panc02 [16] = experiment: Synergistic antitumor activity against mouse Panc02 cells implanted in C57BL/6 mouse assessed as inhibition of tumor growth by measuring combination ratio at 200 mg/kg, po bid for 35 days and irradiated with 5Gy radiation on days 1,8,15,22,29 and measured on day 35; assay type: functional; settings: time 35 day
[17] = Toxicity in C57BL/6 mouse implanted with mouse Panc02 cells assessed as effect on body weight at 200 mg/kg, po bid for 35 days; assay type: organism-based; settings: in vivo, 840 h, time 35 day
[18] = Prodrug conversion in C57BL/6 mouse implanted with mouse Panc02 cells assessed as time during which unbound plasma concentration of (4-((7-Methoxy-1,8-naphthyridin-4yl)oxy)benzyl)phosphonic acid metabolite exceeds IC90 for inhibition of ENPP1 in mouse EL4 cells at 200 mg/kg, po bid for 35 days; assay type: ADME, organism-based; settings: in vivo, 840 h, time 35 day
physchem = settings: aqueous, pH 7.4
Description: Aqueous solubility of the compound at pH 7.4

[19] = target: T2, Ectonucleotide pyrophosphatase/phosphodiesterase family member 1; experiment: Inhibition of ENPP1 (unknown origin) at pH 8.8
[20] = target: T2, Ectonucleotide pyrophosphatase/phosphodiesterase family member 1; experiment: Inhibition of human recombinant ENPP1 at pH 8

Chain of Cytochrome P450 2C9 (P11712 whole entry): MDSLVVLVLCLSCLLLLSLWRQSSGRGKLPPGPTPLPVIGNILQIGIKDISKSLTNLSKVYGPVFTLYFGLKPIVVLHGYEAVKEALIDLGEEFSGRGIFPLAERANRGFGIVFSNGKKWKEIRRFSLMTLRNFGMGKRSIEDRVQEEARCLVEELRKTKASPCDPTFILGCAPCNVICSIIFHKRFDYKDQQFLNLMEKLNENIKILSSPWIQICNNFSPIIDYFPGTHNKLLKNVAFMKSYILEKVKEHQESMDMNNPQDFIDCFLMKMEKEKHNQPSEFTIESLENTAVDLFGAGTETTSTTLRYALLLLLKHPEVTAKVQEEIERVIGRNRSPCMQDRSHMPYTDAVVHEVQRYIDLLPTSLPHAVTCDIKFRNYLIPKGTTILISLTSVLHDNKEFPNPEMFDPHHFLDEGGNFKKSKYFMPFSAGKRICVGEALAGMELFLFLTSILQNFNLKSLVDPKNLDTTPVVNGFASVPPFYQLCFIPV

Row | SMILES | IC50 (Cytochrome P450 2C9) | IC50 (Cytochrome P450 2C19) | IC50 (Cytochrome P450 2D6) | IC50 (Cytochrome P450 1A2) | IC50 (Cytochrome P450 3A4) | also measured
1 | COc1ccc2c(Oc3ccc(CC(=O)NO)cc3)ccnc2n1 | > 50 µM | > 50 µM | > 50 µM | > 50 µM | > 50 µM | 
2 | COc1cccc2c(N3CCC(CCP(=O)(O)O)CC3)ncnc12 |  |  |  |  |  | IC50 [1]: 0.0062 µM; Ki [2]: < 0.002 µM; IC50 [3]: 0.0022 µM
3 | COc1ccc2c(Oc3ccc(C4(C(=O)NO)CCCC4)cc3)ccnc2n1 | 9.2 µM | 8.2 µM |  |  |  | 
4 | COc1ccc2c(Oc3ccc(CP(=O)(OCOC(=O)C(C)(C)C)OCOC(=O)C(C)(C)C)cc3)ccnc2n1 | > 50 µM | > 50 µM | > 50 µM | > 50 µM | > 50 µM | IC50 [4]: > 30 µM; t1/2 [5]: 4.2 h; AUCt [6]: 937 ng·h/mL; F [7]: 17%; t1/2 [8]: 4.22 h; AUCt [9]: 5984 ng·h/mL; F [10]: 39.8%; t1/2 [11]: 1.8 h; AUCt [12]: 793 ng·h/mL; F [13]: 21.1%; inhibition in vivo at 200 mg/kg (Panc02 [14]): 11%; inhibition in vivo at 200 mg/kg (Panc02 [15]): 51%; Ratio (Panc02 [16]): 1.2; Activity [17]: Non-Toxic; T>IC90 [18]: 18 h; solubility (physchem): 20.6 µM (≈ 11.8 µg/mL)
5 | COc1ccc2c(Oc3ccc(CP(=O)(O)O)cc3)ccnc2n1 | > 50 µM | > 50 µM | > 50 µM | > 50 µM | > 50 µM | IC50 [4]: > 30 µM
6 | NC(=O)c1ccc2c(ncn2Cc2ccc(P(=O)(O)O)cc2)n1 |  |  |  |  |  | Ki [19]: < 0.01 µM
7 | COc1ccc2c(Oc3ccc(NS(N)(=O)=O)cc3)ccnc2c1 |  |  |  |  |  | Ki [20]: < 0.1 µM
8 | COc1ccc2c(Oc3ccc(CC(=O)NO)cc3)ccnc2c1 | 2.3 µM | 4 µM | 4.8 µM | 8.1 µM | 10.3 µM | 
